Literature values in patent publication US11530413B2, “Compositions and methods to treat cancer” (NOVARTIS AG, priority 2017, dated 2022).
Read-outs that look alike come from different tables or passages of the source.

Tests used:
CBFB [1] = biological target: T1, CBFB (Homo sapiens, UniProt Q13951); conditions: read-out: IC50 as CBFB inhibitor
T1 sequence (Q13951 1-182): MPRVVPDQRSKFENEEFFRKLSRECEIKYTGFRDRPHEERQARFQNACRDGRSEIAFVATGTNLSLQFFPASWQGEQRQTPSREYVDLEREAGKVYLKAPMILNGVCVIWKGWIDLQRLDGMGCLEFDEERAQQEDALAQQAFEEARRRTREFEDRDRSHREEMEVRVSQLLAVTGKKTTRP

MITF = biological target: T2, MITF (Homo sapiens, UniProt O75030); conditions: read-out: IC50 as MITF inhibitor
T2 sequence (O75030 1-526): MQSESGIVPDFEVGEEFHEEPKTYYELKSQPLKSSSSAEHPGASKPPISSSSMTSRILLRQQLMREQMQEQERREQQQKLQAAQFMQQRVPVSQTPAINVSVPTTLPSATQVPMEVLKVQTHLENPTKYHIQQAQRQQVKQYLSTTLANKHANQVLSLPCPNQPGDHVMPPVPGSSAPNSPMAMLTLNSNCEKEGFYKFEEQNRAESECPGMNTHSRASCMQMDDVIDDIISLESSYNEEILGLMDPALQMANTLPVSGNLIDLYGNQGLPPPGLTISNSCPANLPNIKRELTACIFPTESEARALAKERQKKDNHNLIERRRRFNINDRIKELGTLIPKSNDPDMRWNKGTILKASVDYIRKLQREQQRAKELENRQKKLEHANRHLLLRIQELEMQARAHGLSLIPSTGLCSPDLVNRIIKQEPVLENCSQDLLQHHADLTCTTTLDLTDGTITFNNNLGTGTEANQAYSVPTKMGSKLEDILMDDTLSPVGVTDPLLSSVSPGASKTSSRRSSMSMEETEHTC

CBFB [2] = biological target: T1, CBFB; conditions: read-out: IC50 as CBFB inhibitor; remark: listed apart in the source
FLI1 = conditions: read-out: IC50 as FLI1 inhibitor
CDK = conditions: read-out: IC50 as multi-CDK inhibitor
[3] = biological target: T3, CBFbeta association with Runx1 (Homo sapiens, UniProt Q13951)
T3 sequence (Q13951 1-141 limits assumed): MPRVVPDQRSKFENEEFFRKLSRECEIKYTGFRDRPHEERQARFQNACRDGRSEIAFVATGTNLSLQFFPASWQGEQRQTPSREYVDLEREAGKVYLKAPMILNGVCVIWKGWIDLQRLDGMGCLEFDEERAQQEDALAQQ

GATA3 = conditions: target of the IC50 not stated; named as GATA3 inhibitor; read-out: IC50 of the steroid
CDK2 = conditions: read-out: Ki as CDK inhibitor

For `O=C1CN=C(c2ccc[nH]2)c2cc(Cl)ccc2N1` [Ro5-3335, 7-Chloro-1,3-dihydro-5-(1H-pyrrol-2-yl)-2H-1,4-benzodiazepin-2-one], the IC50 (CBFB [1]) is listed as 1100 nM.
For `NS(=O)(=O)c1ccc(NC2=CC(=O)c3ccccc3C2=O)cc1` [ML329, 4-((1,4-dioxo-1,4-dihydronaphthalen-2-yl)amino)benzenesulfonamide], the IC50 (MITF) is given as 1200 nM.
In the case of `COc1cccnc1-c1nc2cc(OC(F)(F)F)ccc2[nH]1` [AI-10-104], the IC50 (CBFB [2]) is given as 1250 nM.
For `COc1ccc(C(=O)C[C@]2(O)C(=O)Nc3c(Cl)ccc(Cl)c32)cc1` [TK-216, 4,7-dichloro-1,3-dihydro-3-hydroxy-3-[2-(4-methoxyphenyl)-2-oxoethyl]-(3R)-2H-indol-2-one], the IC50 (FLI1) is listed as 449 nM.
In the case of `CN1CC[C@H](c2c(O)cc(O)c3c(=O)cc(-c4ccccc4Cl)oc23)[C@H](O)C1` [Flavopiridol, 2-(2-chlorophenyl)-5,7-dihydroxy-8-[(3S,4R)-3-hydroxy-1-methyl-4-piperidinyl]-4-chromenone], the IC50 (CDK) is given as ~40 nM.
For `CCc1sc(N)nc1-c1ccc(OC)cc1` [CBFB inhibitor, 5-ethyl-4-(4-methoxyphenyl)-2-thiazolamine], the “IC50, binds CBFbeta and prevents its association with Runx1” value [3] is listed as 3200 nM.
For `C[C@@H]1C[C@H]2[C@@H]3CCC4=CC(=O)C=C[C@]4(C)[C@@]3(F)[C@@H](O)C[C@]2(C)[C@@]1(O)C(=O)CO` [Dexamethasone, (8S,9R,10S,11S,13S,14S,16R,17R)-9-Fluoro-11,17-dihydroxy-17-(2-hydroxyacetyl)-10,13,16-trimethyl-6,7,8,9,10,11,12,13,14,15,16,17-dodecahydro-3H-cyclopenta[a]phenanthren-3-one], the IC50 (GATA3) is given as 10 nM.
For `CCNCc1cncc(-c2cccc3[nH]nc(-c4nc5c(F)cc(F)cc5[nH]4)c23)c1C` [AG-024322, N-((5-(3-(4,6-difluoro-1H-benzo[d]imidazol-2-yl)-1H-indazol-4-yl)-4-methylpyridin-3-yl)methyl)ethanamine], the Ki (CDK2) is given as 1 to 3 nM.
For `O=C(NC1CCNCC1)c1n[nH]cc1NC(=O)c1c(Cl)cccc1Cl` [AT7519, 4-[(2,6-Dichlorobenzoyl)amino]-N-(4-piperidinyl)-1H-pyrazole-3-carboxamide], the IC50 (CDK) is listed as 10 to 210 nM.
